Test results as given in PMC6217552, “Refining the structure−activity relationships of 2-phenylcyclopropane carboxylic acids as inhibitors of O-acetylserine sulfhydrylase isoforms” (Journal of Enzyme Inhibition and Medicinal Chemistry, 2018).
Values after ≈ are worked out from the molar mass of the structure shown. “Also recorded” adds a separate entry of the source.

What was measured:
[1] = target: T1, StOASS-B (Salmonella typhimurium, UniProt P29848); experiment: Steady-state enzyme activity assay, discontinuous ninhydrin cysteine determination; format: biochemical; settings: value in brackets in IC50 column
T1 construct: made in house; host or cells: E. coli
T1 sequence (P29848 1-303): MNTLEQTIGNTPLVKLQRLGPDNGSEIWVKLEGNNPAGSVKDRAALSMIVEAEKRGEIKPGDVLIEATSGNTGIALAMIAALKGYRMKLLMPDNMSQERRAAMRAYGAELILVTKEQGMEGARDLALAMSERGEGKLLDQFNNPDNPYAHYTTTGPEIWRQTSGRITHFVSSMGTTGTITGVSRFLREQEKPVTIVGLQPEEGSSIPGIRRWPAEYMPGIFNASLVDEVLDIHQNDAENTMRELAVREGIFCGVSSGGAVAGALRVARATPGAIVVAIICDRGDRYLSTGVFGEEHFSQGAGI
Method: (§1) StOASS-A and StOASS-B, expressed in E. coli, were purified by metal affinity chromatography as described previously. Proteins were more that 95% pure based on SDS-PAGE analysis (data not shown).
(§2) Enzyme activity under steady-state conditions was measured by a discontinuous method as described previously. Briefly, the reaction was carried out in 100 mM HEPES pH 7.0 in the presence of 6 nM OASS, 60 nM BSA to prevent enzyme adhesion to tube wall, 1 mM OAS (equal to the K m value of this subsrate), 0.6 mM Na2S (a saturating concentration), 1% DMSO and variable concentrations of inhibitor. Reaction was stopped at time intervals by the addition of acetic acid and concentration of cysteine was determined by a modification of the ninhydrin assay. The fractional velocity as a function of inhibitor concentration was determined and IC50 was calculated by the following equation: vi/v0=1/1+(I/IC50) where, v 0 is the reaction velocity in the absence of inhibitor and v i is reaction velocity in the presence of inhibitor at concentration [I].
(§3) For a competitive inhibitor against OAS the IC50 measured under these conditions is about 2⋅K d.

[2] = target: T2, OASS-B (Salmonella typhimurium, UniProt P29848); experiment: Fluorescence competitive binding assay (displacement of 1-ethylcyclopropane-1,2-dicarboxylic acid); settings: 200 µM 1-ECP-1,2-DCA, 190-200 µM compound, 100 mM Hepes, 1% DMSO, pH 7, 20 °C
T2 construct: made in house; host or cells: E. coli
T2 sequence (P29848 1-303): T1 sequence (P29848 1-303)
Method: Ligand affinity was measured by direct fluorimetric titrations, monitoring the fluorescence emission spectrum of cofactor PLP upon excitation at 412 nm. 0.1–1 µM OASS was titrated by increasing concentrations of ligand in 100 mM HEPES pH 7.0, 1% DMSO, at 20 °C. The dependence of fluorescence emission intensity on the concentration of compound was fitted to a binding isotherm: I=I0+ΔI·[ligand]/Kd+[ligand] where, I is the fluorescence emission intensity at a given ligand concentration, I 0 is the fluorescence emission intensity in the absence of ligand, ΔI is the amplitude and K d is the dissociation constant. When the K d was lower than the concentration of the protein used in the assay, the dependence of the fluoresecnce emission intensity on ligand concentration was fitted to a quadratic equation that describes tight binding. The fluorescence competitive binding assay, described elsewhere, was used to evaluate whether compounds bind at the active site of the enzyme or to an allosteric site. […] Binding of a higher affinity compound to the active site displaces 1-ethylcyclopropane-1,2-dicarboxylic acid and leads to a decrease in the fluorescence emission intensity.
Figure 3. […] Fluorescence emission spectra upon excitation at 412 nm were collected in the absence and presence of 200 µM 1-ethylcyclopropane-1,2-dicarboxylic acid (1-ECP-1,2-DCA). […]

[3] = target: T3, StOASS-A (Salmonella typhimurium, UniProt P0A1E3); experiment: Steady-state enzyme activity assay, discontinuous ninhydrin cysteine determination; format: biochemical, Salmonella enterica serovar Typhimurium; settings: value in brackets in IC50 column
T3 construct: made in house; host or cells: E. coli
T3 sequence (P0A1E3 whole entry): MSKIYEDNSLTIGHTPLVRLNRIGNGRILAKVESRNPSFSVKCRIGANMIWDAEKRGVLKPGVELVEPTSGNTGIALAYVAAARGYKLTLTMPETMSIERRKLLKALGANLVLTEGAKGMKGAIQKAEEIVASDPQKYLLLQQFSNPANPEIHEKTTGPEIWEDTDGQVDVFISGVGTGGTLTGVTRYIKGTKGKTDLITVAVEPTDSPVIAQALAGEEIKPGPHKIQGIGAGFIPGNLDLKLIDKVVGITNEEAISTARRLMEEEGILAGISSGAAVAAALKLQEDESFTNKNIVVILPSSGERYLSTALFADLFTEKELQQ
Method: as §1, §2, §3

[4] = Solubility limit in the buffer used for activity assays; format: physicochemical; settings: aqueous buffer
Excerpt: It is possible to conclude that expansion of the series towards the para position of the phenyl ring, unless carried out with small groups, is detrimental for the activity of the compounds. […] Even though the carboxylic acid group is essential for the binding to OASS[13] ^, [27] ^, [28], its scarce diffusion across biological membranes is a well-known issue[32] ^, [33]. Therefore, to preserve the key interactions with the target, we carried out the replacement of the carboxylic acid by several isosters (Scheme 2). […] This prompted us to further investigate the mechanism of inhibition of these molecules, since the residual activity at saturating concentrations is significant (about 40 − 50%, Figure 3, panel A). […] This hampers the accurate determination of the inhibition mechanism due to limitations to the range of inhibitor concentration that can be explored. However, since partial inhibition is a typical feature of allosteric inhibitors, we used a method developed by our group[24] to assess if compound 25 is able to displace a low affinity active site binder, 1-ethylcyclopropane-1,2-dicarboxylic acid, that forms a highly fluorescent complex with OASS. […] This is a strong indication that compound 25 is not able to compete for binding to the active site with 1-ethylcyclopropane-1,2-dicarboxylic acid. […]

[5] = test system: Escherichia coli ATCC25922; experiment: Minimal inhibitory concentration (CLSI) in medium with limiting cysteine; format: cell-based; settings: E. coli ATCC25922, medium with limiting cysteine; data not shown
Method: Minimal inhibitory concentration assays were performed according to the CLSI guidelines (Clinical and Laboratory Standards Institute; Performance Standards for Antimicrobial Susceptibility Testing; Twenty-Fourth Informational Supplement; CLSI document M100-S24, CLSI; 2014.). The compounds were dissolved in DMSO to obtain a stock solution 100-fold more concentrated than the desired higher concentration and then 10 serial dilutions were performed. One microliter of each dilution was transferred to the microtiter plate.
Escherichia coli ATCC25922 was grown until log phase on liquid Mueller–Hinton broth at 37 °C in a shaker at 225 rpm. Bacterial suspension was then centrifuged at 2500 rpm for 15 min and diluted with phosphate buffer to obtain a solution with a turbidity of about 0.5 McFarland. Bacterial suspension was further diluted (1:100) with fresh LB 20%. Fifty microliters of the bacterial suspension containing 10^6 CFU/mL were inoculated into each well, to obtain a final concentration of 5 × 10^5 CFU/mL. Each plate contained growth control wells and sterility check wells.
We investigated the ability of the new set of compounds to interfere with bacterial growth.

[6] = target: T1, StOASS-B; parameters: method as in PMID 28821763; settings: low affinity active site binder; read-out: Kd for OASS-B; cited from earlier work

Row | Structure (SMILES) | OASS-B percent inhibition measured at saturation of inhibitor or at the highest inhibitor concentration allowed by solubility [1] | Displacement of 1-ethylcyclopropane-1,2-dicarboxylic acid from OASS-B [2] | OASS-A percent inhibition measured at saturation of inhibitor or at the highest inhibitor concentration allowed by solubility [3] | solubility [4] | Interference with bacterial growth (MIC) [5] | Kd [6]
1 | Cc1ccc(C[C@]2(NS(=O)(=O)c3ccc(C)cc3)C[C@H]2c2ccccc2)cc1 [Compound 25, (1R,2S)-4-methyl-N-(1-(4-methylbenzyl)-2-phenylcyclopropyl)benzenesulfonamide] | 35% | unable to displace the compound up to an equimolar concentration of about 200 μM; also recorded: does not change the emission spectrum | 39% | ~50 µM (≈ 19.6 µg/mL) |  | 
2 | Cc1ccc(C[C@]2(NS(C)(=O)=O)C[C@H]2c2ccccc2)cc1 [Compound 24, (1R,2S)-1-N-(1-(4-methylbenzyl)-2-phenylcyclopropyl)methanesulfonamide] | 50% |  | 45% | ~250 µM (≈ 78.9 µg/mL) | none of the synthesised compounds was able to interfere significantly with bacterial growth | 
3 | CCC1(C(=O)O)CC1C(=O)O (stereo not drawn) [1-ethylcyclopropane-1,2-dicarboxylic acid] |  |  |  |  |  | 170 µM
